Test results as given in ChEMBL document CHEMBL1201862, “PubChem BioAssay data set” (2004).
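Growth conditions: 96-well plates. Treatment: test compound, 48 hours, 5 concentrations. Analysis: linear interpolation between bracketing concentrations; unreached endpoints set to highest concentration. The concentration for 50% growth inhibition is given as GI50.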 The source made the active and inactive calls. Rule as the data show it: active = GI50 up to about 1.1 µM and inactive = higher.

Tests used:
Assay in all cases: NCI-60 cell line screen, 48 h
M19-MEL = system: M19-MEL
HOP-18 = system: HOP-18
CAKI-1 = system: CAKI-1
A498 = system: A498
HCT-15 = system: HCT-15
DMS-273 = system: DMS-273
SK-OV-3 = system: SK-OV-3
SNB-19 = system: SNB-19
SK-MEL-2 = system: SK-MEL-2
SK-MEL-28 = system: SK-MEL-28
KM-20L2 = system: KM-20L2
EKVX = system: EKVX
OVCAR-5 = system: OVCAR-5
HOP-92 = system: HOP-92
U-251 = system: U-251
SF-268 = system: SF-268
OVCAR-3 = system: OVCAR-3
UACC-257 = system: UACC-257
A549 = system: A549
SNB-78 = system: SNB-78
SK-MEL-5 = system: SK-MEL-5
HCC 2998 = system: HCC 2998
IGROV-1 = system: IGROV-1
NCI/ADR-RES = system: NCI/ADR-RES
SW-620 = system: SW-620
OVCAR-8 = system: OVCAR-8
MOLT-4 = system: MOLT-4
RXF 393 = system: RXF 393
SF-539 = system: SF-539
UACC-62 = system: UACC-62
SN12C = system: SN12C
HCT-116 = system: HCT-116
NCI-H522 = system: NCI-H522
NCI-H460 = system: NCI-H460
SNB-75 = system: SNB-75
HOP-62 = system: HOP-62
HL-60 = system: HL-60
NCI-H226 = system: NCI-H226
COLO 205 = system: COLO 205
K562 = system: K562
UO-31 = system: UO-31
HT-29 = system: HT-29
KM12 = system: KM12
XF498 = system: XF498
DMS-114 = system: DMS-114
SF-295 = system: SF-295
Malme-3M = system: Malme-3M
OVCAR-4 = system: OVCAR-4
MCF7 = system: MCF7
RPMI-8226 = system: RPMI-8226
CCRF-CEM = system: CCRF-CEM
NCI-H23 = system: NCI-H23
LOX IMVI = system: LOX IMVI
DLD-1 = system: DLD-1

With `O[C@H]1[C@H](O)[C@@H](O)CN2CC[C@H](O)[C@H]12` [CASTANOSPERMINE] the GI50 (M19-MEL) was 32.8 µM (inactive), the GI50 (HOP-18) was > 100 µM (inactive) and the GI50 (CAKI-1) was > 100 µM (inactive). For the same molecule, the GI50 (A498) was > 100 µM (inactive), the GI50 (HCT-15) was over 100 µM and the GI50 (DMS-273) was > 100 µM (inactive). For the same molecule, the GI50 (SK-OV-3) was > 100 µM (inactive), the GI50 (SNB-19) was > 100 µM (inactive) and the GI50 (SK-MEL-2) was 99.3 µM (inactive). The GI50 (SK-MEL-28) was > 100 µM (inactive), the GI50 (KM-20L2) was > 100 µM (inactive) and the GI50 (EKVX) was > 100 µM (inactive). For the same molecule, the GI50 (OVCAR-5) was > 100 µM (inactive), the GI50 (HOP-92) was > 100 µM (inactive) and the GI50 (U-251) was > 100 µM (inactive). The GI50 (SF-268) was > 100 µM (inactive), the GI50 (OVCAR-3) was > 100 µM (inactive) and the GI50 (UACC-257) was > 100 µM (inactive). For the same molecule, the GI50 (A549) was > 100 µM (inactive), the GI50 (SNB-78) was > 100 µM (inactive) and the GI50 (SK-MEL-5) was > 100 µM (inactive). The GI50 (HCC 2998) was > 95.5 µM (inactive), the GI50 (IGROV-1) was > 100 µM (inactive) and the GI50 (NCI/ADR-RES) was > 100 µM (inactive). The GI50 (SW-620) was > 100 µM (inactive), the GI50 (OVCAR-8) was > 100 µM (inactive) and the GI50 (MOLT-4) was > 100 µM (inactive). The GI50 (RXF 393) was > 100 µM (inactive), the GI50 (SF-539) was > 100 µM (inactive) and the GI50 (UACC-62) was > 100 µM (inactive). For the same molecule, the GI50 (SN12C) was > 100 µM (inactive), the GI50 (HCT-116) was > 100 µM (inactive) and the GI50 (NCI-H522) was > 100 µM (inactive). The GI50 (NCI-H460) was > 100 µM (inactive), the GI50 (SNB-75) was > 100 µM (inactive) and the GI50 (HOP-62) was > 100 µM (inactive). The GI50 (HL-60) was > 39.8 µM (inactive), the GI50 (NCI-H226) was > 100 µM (inactive) and the GI50 (COLO 205) was > 100 µM (inactive). For the same molecule, the GI50 (K562) was > 100 µM (inactive), the GI50 (UO-31) was > 94.4 µM (inactive) and the GI50 (HT-29) was > 100 µM (inactive). For the same molecule, the GI50 (KM12) was > 100 µM (inactive), the GI50 (XF498) was > 100 µM (inactive) and the GI50 (DMS-114) was > 100 µM (inactive). For the same molecule, the GI50 (SF-295) was > 100 µM (inactive), the GI50 (Malme-3M) was > 90.6 µM (inactive) and the GI50 (OVCAR-4) was > 86.7 µM (inactive). The GI50 (MCF7) was > 100 µM (inactive), the GI50 (RPMI-8226) was > 100 µM (inactive) and the GI50 (CCRF-CEM) was > 100 µM (inactive). The GI50 (NCI-H23) was > 100 µM (inactive), the GI50 (LOX IMVI) was > 100 µM (inactive) and the GI50 (DLD-1) was > 100 µM (inactive).
`O=CNc1cccc2c3c([nH]c12)CCCCCC3` was tested, and the GI50 (M19-MEL) was > 100 µM (inactive), the GI50 (HOP-18) was > 100 µM (inactive) and the GI50 (CAKI-1) was 33 µM (inactive). The GI50 (A498) was 76.6 µM (inactive), the GI50 (HCT-15) was over 100 µM and the GI50 (DMS-273) was > 100 µM (inactive). For the same molecule, the GI50 (SK-OV-3) was > 100 µM (inactive), the GI50 (SNB-19) was > 100 µM (inactive) and the GI50 (SK-MEL-2) was > 100 µM (inactive). For the same molecule, the GI50 (SK-MEL-28) was > 100 µM (inactive), the GI50 (KM-20L2) was > 100 µM (inactive) and the GI50 (EKVX) was > 100 µM (inactive). For the same molecule, the GI50 (OVCAR-5) was > 100 µM (inactive), the GI50 (HOP-92) was 48 µM (inactive) and the GI50 (U-251) was > 100 µM (inactive). The GI50 (SF-268) was > 100 µM (inactive), the GI50 (OVCAR-3) was > 100 µM (inactive) and the GI50 (UACC-257) was > 87.3 µM (inactive). The GI50 (A549) was > 100 µM (inactive), the GI50 (SNB-78) was > 92 µM (inactive) and the GI50 (SK-MEL-5) was 97.5 µM (inactive). The GI50 (HCC 2998) was > 100 µM (inactive), the GI50 (IGROV-1) was 83.2 µM (inactive) and the GI50 (NCI/ADR-RES) was > 100 µM (inactive). The GI50 (SW-620) was > 100 µM (inactive), the GI50 (OVCAR-8) was > 100 µM (inactive) and the GI50 (MOLT-4) was 66.1 µM (inactive). The GI50 (RXF 393) was > 75.7 µM (inactive), the GI50 (SF-539) was > 100 µM (inactive) and the GI50 (UACC-62) was > 100 µM (inactive). The GI50 (SN12C) was > 100 µM (inactive), the GI50 (HCT-116) was > 100 µM (inactive) and the GI50 (NCI-H522) was > 67.1 µM (inactive). For the same molecule, the GI50 (NCI-H460) was > 100 µM (inactive), the GI50 (SNB-75) was > 93.1 µM (inactive) and the GI50 (HOP-62) was > 100 µM (inactive). The GI50 (HL-60) was > 100 µM (inactive), the GI50 (NCI-H226) was > 100 µM (inactive) and the GI50 (COLO 205) was > 100 µM (inactive). For the same molecule, the GI50 (K562) was 67.9 µM (inactive), the GI50 (UO-31) was > 82.4 µM (inactive) and the GI50 (HT-29) was > 69.3 µM (inactive). The GI50 (KM12) was > 100 µM (inactive), the GI50 (XF498) was > 77.1 µM (inactive) and the GI50 (DMS-114) was > 81.5 µM (inactive). For the same molecule, the GI50 (SF-295) was > 62.4 µM (inactive), the GI50 (Malme-3M) was > 85.5 µM (inactive) and the GI50 (OVCAR-4) was > 100 µM (inactive). The GI50 (MCF7) was > 100 µM (inactive), the GI50 (CCRF-CEM) was > 77.8 µM (inactive) and the GI50 (NCI-H23) was > 100 µM (inactive). The GI50 (LOX IMVI) was > 100 µM (inactive) and the GI50 (DLD-1) was > 100 µM (inactive).
